Measured values reported in patent publication US20080318775A1, “Safening of pesticides with cyclopropenes” (priority 2007, published 2008).
Like-named read-outs stand apart in the source and are kept apart here.

Assays:
[1] = tested on: GLYPHOSATE-resistant soybeans; conditions: in vivo
[2] = tested on: GLYPHOSATE-resistant soybeans; conditions: in vivo; remark: listed apart in the source
[3] = tested on: GLYPHOSATE-resistant soybeans; assay: Plant height of soybeans sprayed with 2% GLYPHOSATE with or without 1-MCP
[4] = tested on: GLYPHOSATE-resistant soybeans; assay: Plant height of soybeans sprayed with 0.5% GLYPHOSATE with or without 1-MCP
[5] = tested on: GLYPHOSATE-resistant soybeans; assay: Plant height of soybeans sprayed with 0.05% PHYSAN 20 fungicide/antimicrobial agent with or without 1-MCP; format: in vivo; conditions: 10 ppm 1-MCP with 0.05% PHYSAN 20; plant height after 21 days

In the case of CNC(=O)Oc1cccc2ccccc12 [CARBARYL, reference compound], the “Plant Height” value [1] is reported as 112.8.
For CC1=CC1 [1-MCP, 1-methylcyclopropene], the “Effect on the negative effect of the fertilizer on plant growth (in words)” value [2] was “able to alleviate some of that effect”, the “Effect on plant height / effect of the herbicide (in words)” value ([3]; 10 ppm 1-MCP with 2% GLYPHOSATE, with or without 0.1% Quillaja Saponin adjuvant, plant height after 21 days) was “improved the height” and the “Effect on setback caused by the insecticide (in words)” value [1] was “able to mediate some of the setback caused by the insecticide”. The “Effect on growth reduction caused by the herbicide (in words)” value ([4]; 10 ppm 1-MCP with 0.5% GLYPHOSATE, plant height after 21 days) was “able to prevent the growth reduction caused by the herbicide” and the “Effect compared to the fungicide-treated plants (in words)” value [5] was “positive effect”.
With O=C(O)CNCP(=O)(O)O [GLYPHOSATE, reference compound] the “Plant Height” value ([3]; greenhouse, sprayed to run off at second true leaves, 2% GLYPHOSATE, 10 ppm 1-MCP (as α-cyclodextrin complex), adjuvant 0.1% Quillaja Saponin, 21 days after spray, untreated control 126) was 112.9 and the “Plant Height” value ([4]; greenhouse, sprayed to run off at second true leaves, 0.5% GLYPHOSATE, 10 ppm 1-MCP (as α-cyclodextrin complex), adjuvant 0.1% Quillaja Saponin, 21 days after spray, untreated control 126) was 112.1.
